Legend:
c-Raf = c-Raf (Homo sapiens, UniProt P04049); test: Luciferase-coupled chemiluminescence kinase assay (ATP consumption), c-Raf; format: biochemical; conditions: read-out: cRaf-1 (inhibition indicated as IC50)
Outline: (§1)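 Pre-incub. kinase […] + cpd, 30 min RT (20 mM Tris pH 7.5, 10 mM MgCl2, 0.03% TX-100, 1 mM DTT). Start w/ ATP, 3 h ambient. Luciferase-luciferin mix added and luminescence read. Total ATP use 25-60%. IC50 derived.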

B-Raf = B-Raf (Homo sapiens, UniProt P15056); test: Luciferase-coupled chemiluminescence kinase assay (ATP consumption), B-Raf; format: biochemical; conditions: read-out: bRaf (inhibition indicated as IC50)
Sequence of B-Raf (P15056 whole entry): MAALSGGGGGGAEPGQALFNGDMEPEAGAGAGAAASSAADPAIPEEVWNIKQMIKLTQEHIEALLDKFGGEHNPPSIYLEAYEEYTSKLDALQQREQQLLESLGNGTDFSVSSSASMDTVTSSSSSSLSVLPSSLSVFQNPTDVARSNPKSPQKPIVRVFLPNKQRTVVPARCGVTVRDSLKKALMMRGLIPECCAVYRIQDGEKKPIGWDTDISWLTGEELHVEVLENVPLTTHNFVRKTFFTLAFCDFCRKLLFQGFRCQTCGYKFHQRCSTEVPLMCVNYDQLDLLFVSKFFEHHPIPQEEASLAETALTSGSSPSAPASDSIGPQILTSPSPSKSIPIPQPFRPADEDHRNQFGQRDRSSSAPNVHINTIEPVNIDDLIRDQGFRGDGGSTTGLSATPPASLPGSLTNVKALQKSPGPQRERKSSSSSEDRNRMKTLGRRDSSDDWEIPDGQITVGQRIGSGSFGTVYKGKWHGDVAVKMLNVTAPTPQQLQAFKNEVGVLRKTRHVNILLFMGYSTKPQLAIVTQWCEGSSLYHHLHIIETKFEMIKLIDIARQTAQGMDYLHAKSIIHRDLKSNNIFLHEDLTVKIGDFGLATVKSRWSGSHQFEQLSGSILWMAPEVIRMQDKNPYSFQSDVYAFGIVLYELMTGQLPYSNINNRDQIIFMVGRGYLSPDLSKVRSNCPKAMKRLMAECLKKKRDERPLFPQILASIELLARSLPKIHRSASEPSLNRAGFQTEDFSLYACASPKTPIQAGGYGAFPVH
Outline: as §1

Sequence of c-Raf (P04049 whole entry): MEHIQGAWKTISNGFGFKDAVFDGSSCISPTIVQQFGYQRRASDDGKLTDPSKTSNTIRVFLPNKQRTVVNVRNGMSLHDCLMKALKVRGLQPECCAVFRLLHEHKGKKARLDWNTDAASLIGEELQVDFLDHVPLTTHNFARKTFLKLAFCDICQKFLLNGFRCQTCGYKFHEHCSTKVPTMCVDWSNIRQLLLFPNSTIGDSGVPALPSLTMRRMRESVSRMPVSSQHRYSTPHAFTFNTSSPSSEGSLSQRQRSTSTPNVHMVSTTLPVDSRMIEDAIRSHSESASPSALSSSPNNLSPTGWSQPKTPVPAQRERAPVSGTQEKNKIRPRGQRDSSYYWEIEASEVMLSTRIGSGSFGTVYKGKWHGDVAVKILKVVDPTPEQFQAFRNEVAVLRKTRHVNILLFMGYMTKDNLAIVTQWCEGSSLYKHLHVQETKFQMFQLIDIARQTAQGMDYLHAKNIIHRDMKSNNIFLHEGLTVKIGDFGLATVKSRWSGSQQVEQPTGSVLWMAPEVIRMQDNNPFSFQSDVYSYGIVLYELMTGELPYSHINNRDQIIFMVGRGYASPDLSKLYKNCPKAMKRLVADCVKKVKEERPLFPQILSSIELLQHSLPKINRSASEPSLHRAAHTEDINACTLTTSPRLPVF

| SMILES | IC50 (c-Raf) | IC50 (B-Raf) |
| --- | --- | --- |
| O=C1c2ccccc2C(O)(c2ccc3[nH]c(Nc4ccccc4)nc3c2)N1c1cccc(Cl)c1F (stereo not shown) [Entry 348, 2-(3-chloro-2-fluorophenyl)-3-hydroxy-3-[2-(phenylamino)-1H-benzimidazol-5-yl]-2,3-dihydro-1H-isoindol-1-one] | 1000 to 10000 nM | 1000 to 10000 nM |
| COC(=O)Nc1nc2ccc(C3(O)c4c(Cl)ccc(Cl)c4C(=O)N3c3cccc(Cl)c3F)cc2[nH]1 (stereo not shown) [Entry 349, methyl {6-[4,7-dichloro-2-(3-chloro-2-fluorophenyl)-1-hydroxy-3-oxo-2,3-dihydro-1H-isoindol-1-yl]-1H-benzimidazol-2-yl}carbamate] | 1000 to 10000 nM | 1000 to 10000 nM |
| CCOC(=O)Nc1nc2cc(C(=O)c3ccccc3C(=O)OCc3ccccc3)ccc2o1 [Entry 350, phenylmethyl 2-[(2-{[(ethyloxy)carbonyl]amino}-1,3-benzoxazol-5-yl)carbonyl]benzoate] | 1000 to 10000 nM | 1000 to 10000 nM |
| C#Cc1cc(Cl)cc(N2C(=O)c3ccccc3C2(O)c2ccc3[nH]c(NC(=O)OC)nc3c2)c1C (stereo not shown) [Entry 351, methyl {5-[2-(5-chloro-3-ethynyl-2-methylphenyl)-1-hydroxy-3-oxo-2,3-dihydro-1H-isoindol-1-yl]-1H-benzimidazol-2-yl}carbamate] | 100 to 1000 nM | < 100 nM |
| C#Cc1cc(N2C(=O)c3ccccc3C2(O)c2ccc3[nH]c(NC(=O)OC)nc3c2)c(F)cc1F (stereo not shown) [Entry 352, methyl {5-[2-(5-ethynyl-2,4-difluorophenyl)-1-hydroxy-3-oxo-2,3-dihydro-1H-isoindol-1-yl]-1H-benzimidazol-2-yl}carbamate] | < 100 nM | < 100 nM |
| C#Cc1c(F)ccc(N2C(=O)c3ccccc3C2(O)c2ccc3[nH]c(NC(=O)OC)nc3c2)c1F (stereo not shown) [Entry 353, methyl {5-[2-(3-ethynyl-2,4-difluorophenyl)-1-hydroxy-3-oxo-2,3-dihydro-1H-isoindol-1-yl]-1H-benzimidazol-2-yl}carbamate] | < 100 nM | < 100 nM |
| O=C1c2ccccc2C(O)(c2ccc3[nH]c(Nc4ncccn4)nc3c2)N1c1cccc(Cl)c1F (stereo not shown) [Entry 354, 2-(3-chloro-2-fluorophenyl)-3-hydroxy-3-[2-(pyrimidin-2-ylamino)-1H-benzimidazol-5-yl]-2,3-dihydro-1H-isoindol-1-one] | < 100 nM | < 100 nM |
| C#Cc1cccc(N2C(=O)c3c(F)ccc(F)c3C2(O)c2ccc3[nH]c(NC(=O)OC)nc3c2)c1F (stereo not shown) [Entry 355, methyl {5-[2-(3-ethynyl-2-fluorophenyl)-4,7-difluoro-1-hydroxy-3-oxo-2,3-dihydro-1H-isoindol-1-yl]-1H-benzimidazol-2-yl}carbamate] | < 100 nM | < 100 nM |
| O=C1c2ccccc2C(O)(c2ccc3[nH]c(Nc4nccs4)nc3c2)N1c1cccc(Cl)c1F (stereo not shown) [Entry 356, 2-(3-chloro-2-fluorophenyl)-3-hydroxy-3-[2-(1,3-thiazol-2-ylamino)-1H-benzimidazol-5-yl]-2,3-dihydro-1H-isoindol-1-one] | < 100 nM | < 100 nM |
| CCOC(=O)Nc1nc2cc(C3(O)c4ccccc4C(=O)N3c3cccc(Cl)c3F)ccc2o1 (stereo not shown) [Entry 357, ethyl {5-[2-(3-chloro-2-fluorophenyl)-1-hydroxy-3-oxo-2,3-dihydro-1H-isoindol-1-yl]-1,3-benzoxazol-2-yl}carbamate] | 100 to 1000 nM | < 100 nM |
| COC(=O)Nc1nc2cc(C3(O)c4ccccc4C(=O)N3c3cc(Cl)cc(I)c3C)ccc2[nH]1 (stereo not shown) [Entry 358, methyl {5-[2-(5-chloro-3-iodo-2-methylphenyl)-1-hydroxy-3-oxo-2,3-dihydro-1H-isoindol-1-yl]-1H-benzimidazol-2-yl}carbamate] | 100 to 1000 nM | 100 to 1000 nM |
| CCc1cccc(N2C(=O)c3ccccc3C2(O)c2ccc3[nH]c(NC(=O)OC)nc3c2)c1F (stereo not shown) [Entry 359, methyl {5-[2-(3-ethyl-2-fluorophenyl)-1-hydroxy-3-oxo-2,3-dihydro-1H-isoindol-1-yl]-1H-benzimidazol-2-yl}carbamate] | < 100 nM | < 100 nM |
| C#Cc1ccc(C)c(N2C(=O)c3ccccc3C2(O)c2ccc3[nH]c(NC(=O)OC)nc3c2)c1 (stereo not shown) [Entry 360, methyl {5-[2-(5-ethynyl-2-methylphenyl)-1-hydroxy-3-oxo-2,3-dihydro-1H-isoindol-1-yl]-1H-benzimidazol-2-yl}carbamate] | < 100 nM | < 100 nM |
| O=C1c2ccccc2C(O)(c2ccc3[nH]c(Nc4cnccn4)nc3c2)N1c1cccc(Cl)c1F (stereo not shown) [Entry 361, 2-(3-chloro-2-fluorophenyl)-3-hydroxy-3-[2-(pyrazin-2-ylamino)-1H-benzimidazol-5-yl]-2,3-dihydro-1H-isoindol-1-one] | < 100 nM | < 100 nM |
| COC(=O)Nc1nc2cc(C3(O)c4ccccc4C(=O)N3c3cccc(I)c3F)ccc2[nH]1 (stereo not shown) [Entry 362, methyl {5-[2-(2-fluoro-3-iodophenyl)-1-hydroxy-3-oxo-2,3-dihydro-1H-isoindol-1-yl]-1H-benzimidazol-2-yl}carbamate] | < 100 nM | < 100 nM |
| C#Cc1ccc(F)c(N2C(=O)c3ccccc3C2(O)c2ccc3nc(NC(=O)OC)[nH]c3c2)c1 (stereo not shown) [Entry 363, methyl {6-[2-(5-ethynyl-2-fluorophenyl)-1-hydroxy-3-oxo-2,3-dihydro-1H-isoindol-1-yl]-1H-benzimidazol-2-yl}carbamate] | < 100 nM | < 100 nM |
| C#Cc1cccc(N2C(=O)c3ccccc3C2(O)c2ccc3[nH]c(Nc4ncccn4)nc3c2)c1F (stereo not shown) [Entry 364, 2-(3-ethynyl-2-fluorophenyl)-3-hydroxy-3-[2-(pyrimidin-2-ylamino)-1H-benzimidazol-5-yl]-2,3-dihydro-1H-isoindol-1-one] | < 100 nM | < 100 nM |
| COC(=O)Nc1nc2cc(C3(O)c4ccccc4C(=O)N3c3cc(C)ccc3C)ccc2[nH]1 (stereo not shown) [Entry 365, methyl {5-[2-(2,5-dimethylphenyl)-1-hydroxy-3-oxo-2,3-dihydro-1H-isoindol-1-yl]-1H-benzimidazol-2-yl}carbamate] | < 100 nM | < 100 nM |
| C=Cc1cccc(N2C(=O)c3ccccc3C2(O)c2ccc3[nH]c(NC(=O)OC)nc3c2)c1F (stereo not shown) [Entry 366, methyl {5-[2-(3-ethenyl-2-fluorophenyl)-1-hydroxy-3-oxo-2,3-dihydro-1H-isoindol-1-yl]-1H-benzimidazol-2-yl}carbamate] | < 100 nM | < 100 nM |
| COC(=O)Nc1nc2ccc(C3(O)c4ccccc4C(=O)N3c3cccc(OC)c3F)cc2[nH]1 (stereo not shown) [Entry 367, methyl (6-{2-[2-fluoro-3-(methyloxy)phenyl]-1-hydroxy-3-oxo-2,3-dihydro-1H-isoindol-1-yl}-1H-benzimidazol-2-yl)carbamate] | 100 to 1000 nM | < 100 nM |
| COC(=O)Nc1nc2cc(C3(O)c4ccccc4C(=O)N3c3cc(OC)ccc3C)ccc2[nH]1 (stereo not shown) [Entry 368, methyl (5-{1-hydroxy-2-[2-methyl-5-(methyloxy)phenyl]-3-oxo-2,3-dihydro-1H-isoindol-1-yl}-1H-benzimidazol-2-yl)carbamate] | < 100 nM | < 100 nM |
| C#Cc1cccc(N2C(=O)c3cccc(F)c3C2(O)c2ccc3[nH]c(NC(=O)OC)nc3c2)c1F (stereo not shown) [Entry 369, methyl {5-[2-(3-ethynyl-2-fluorophenyl)-7-fluoro-1-hydroxy-3-oxo-2,3-dihydro-1H-isoindol-1-yl]-1H-benzimidazol-2-yl}carbamate] | < 100 nM | < 100 nM |
| CC#Cc1cccc(N2C(=O)c3ccccc3C2(O)c2ccc3[nH]c(NC(=O)OC)nc3c2)c1F (stereo not shown) [Entry 370, methyl {5-[2-(2-fluoro-3-prop-1-yn-1-ylphenyl)-1-hydroxy-3-oxo-2,3-dihydro-1H-isoindol-1-yl]-1H-benzimidazol-2-yl}carbamate] | 100 to 1000 nM | 100 to 1000 nM |
| COC(=O)Nc1nc2cc(C3(O)c4c(F)cccc4C(=O)N3c3cc(Cl)ccc3C)ccc2[nH]1 (stereo not shown) [Entry 371, methyl {5-[2-(5-chloro-2-methylphenyl)-7-fluoro-1-hydroxy-3-oxo-2,3-dihydro-1H-isoindol-1-yl]-1H-benzimidazol-2-yl}carbamate] | < 100 nM | < 100 nM |
| C#Cc1cccc(N2C(=O)c3ccccc3C2(O)c2ccc3[nH]c(NC(=O)OC)nc3c2)c1C (stereo not shown) [Entry 372, methyl {5-[2-(3-ethynyl-2-methylphenyl)-1-hydroxy-3-oxo-2,3-dihydro-1H-isoindol-1-yl]-1H-benzimidazol-2-yl}carbamate] | < 100 nM | < 100 nM |
| COc1cccc(N2C(=O)c3ccccc3C2(O)c2ccc3nc(Nc4ncccn4)[nH]c3c2)c1 (stereo not shown) [Entry 373, 3-hydroxy-2-[3-(methyloxy)phenyl]-3-[2-(pyrimidin-2-ylamino)-1H-benzimidazol-6-yl]-2,3-dihydro-1H-isoindol-1-one] | < 100 nM | < 100 nM |
| Cc1cccc(N2C(=O)c3ccccc3C2(O)c2ccc3nc(Nc4ncccn4)[nH]c3c2)c1 (stereo not shown) [Entry 374, 3-hydroxy-2-(3-methylphenyl)-3-[2-(pyrimidin-2-ylamino)-1H-benzimidazol-6-yl]-2,3-dihydro-1H-isoindol-1-one] | < 100 nM | < 100 nM |
| Cc1ccc(Cl)cc1N1C(=O)c2ccccc2C1(O)c1ccc2nc(Nc3ncccn3)[nH]c2c1 (stereo not shown) [Entry 375, 2-(5-chloro-2-methylphenyl)-3-hydroxy-3-[2-(pyrimidin-2-ylamino)-1H-benzimidazol-6-yl]-2,3-dihydro-1H-isoindol-1-one] | < 100 nM | < 100 nM |
| COC(=O)Nc1nc2ccc(C3(O)c4c(F)ccc(F)c4C(=O)N3c3cc(Cl)ccc3C)cc2[nH]1 (stereo not shown) [Entry 376, methyl {6-[2-(5-chloro-2-methylphenyl)-4,7-difluoro-1-hydroxy-3-oxo-2,3-dihydro-1H-isoindol-1-yl]-1H-benzimidazol-2-yl}carbamate] | < 100 nM | < 100 nM |

Reference: patent publication US7846959B2, “Raf modulators and methods of use” (Exelixis, Inc., priority 2004, dated 2010)
